Consider nine compounds from ChEMBL document CHEMBL3826972, “Spirostanol saponins from Tacca vietnamensis and their anti-inflammatory activity” (Bioorg Med Chem Lett, 2016).

Activity calls are given as the source filed them. No cut-off for these calls is given here. Bounds are passed on as bounds.

Series [1] is described as follows: Cytotoxicity against mouse RAW264.7 cells assessed as cell viability at 80 uM. It is filed as cell-based. As to conditions: read-out: Activity.
Series [2] in a line: Cytotoxicity against mouse BV2 cells assessed as cell viability at 80 uM. The class given is cell-based, BV-2. As to conditions: read-out: Activity.
In series [3] the test system is RAW264.7. Description: Inhibition of LPS-induced NO production in mouse RAW264.7 cells by Griess assay. The class given is functional, cell-based. A general note: Nitrite, measured by Griess reagent, commonly stands in for NO production.
Series [4] concerns RAW264.7. Description: Inhibition of LPS-induced NO production in mouse RAW264.7 cells at 80 uM by Griess assay. The class given is functional.
In series [5] the test system is BV-2. In words: Inhibition of LPS-induced NO production in mouse BV2 cells by Griess assay. It is filed as functional, cell-based.
In series [6] the test system is BV-2. In words: Inhibition of LPS-induced NO production in mouse BV2 cells at 80 uM by Griess assay. It is filed as functional.

For `C[C@H]1CC[C@@]2(OC1)O[C@@H]1C[C@@H]3[C@H]4CC=C5C[C@H](O[C@H]6O[C@@H](CO)[C@H](O)[C@@H](O[C@H]7O[C@H](C)[C@@H](O[C@@H]8O[C@H](CO)[C@@H](O)[C@H](O)[C@H]8O)[C@H](O)[C@@H]7O)[C@@H]6O[C@H]6O[C@H](C)[C@@H](O)[C@H](O)[C@@H]6O)CC[C@@]5(C)[C@@H]4CC[C@@]3(C)[C@@H]1[C@H]2C`, the viability at 80 µM in series [1] and in series [2] was less than 50% each time.

Regarding `C[C@@H]1O[C@@H](O[C@H]2[C@H](O[C@H]3CC[C@@]4(C)C(=CC[C@H]5[C@@H]6C[C@@H]7OC8(OC[C@](C)(O)C[C@@H]8O)[C@@H](C)[C@@H]7[C@@]6(C)CC[C@@H]54)C3)O[C@H](CO)[C@@H](O)[C@@H]2O[C@@H]2O[C@@H](C)[C@H](O)[C@@H](O)[C@H]2O)[C@H](O)[C@H](O)[C@H]1O` (single isomer, unassigned), the IC50 with RAW264.7 [3] and in the series on BV-2 [5] was more than 80 µM in each case. In addition, the inhibition at 80 µM in the series on RAW264.7 [4] and in the series on BV-2 [6] was less than 50% in each case.

Take `C[C@@H]1COC2(C[C@@H]1O)O[C@H]1C[C@H]3[C@@H]4CC=C5C[C@@H](O[C@@H]6O[C@H](CO)[C@@H](O)[C@H](O[C@@H]7O[C@@H](C)[C@H](O)[C@@H](O)[C@H]7O)[C@H]6O[C@@H]6O[C@@H](C)[C@H](O)[C@@H](O)[C@H]6O)CC[C@]5(C)[C@H]4CC[C@]3(C)[C@H]1[C@@H]2C` (single isomer, unassigned): the IC50 in the series on RAW264.7 [3] and in the series on BV-2 [5] was more than 80 µM in each case. The inhibition at 80 µM in the series on RAW264.7 [4] and in the series on BV-2 [6] was less than 50% in each case.

For `C[C@@H]1CO[C@]2(O[C@H]3C[C@@H]4[C@@H]5CC=C6C[C@@H](O[C@@H]7O[C@H](CO)[C@@H](O)[C@H](O[C@@H]8O[C@@H](C)[C@H](O)[C@@H](O)[C@H]8O)[C@H]7O[C@@H]7O[C@@H](C)[C@H](O)[C@@H](O)[C@H]7O)CC[C@]6(C)[C@H]5CC[C@]4(C)[C@H]3[C@@H]2C)[C@@H](O)[C@@H]1O` (stereo in doubt), the results for the IC50 with RAW264.7 [3] and in the series on BV-2 [5] were 60.7 µM and 52.1 µM, respectively. Further, the inhibition result in the series on RAW264.7 [4] and in the series on BV-2 [6] was “Active” in each case.

As for `C[C@@H]1O[C@@H](O[C@H]2[C@H](O[C@@H]3CC[C@]4(C)C(=CC[C@@H]5[C@H]6C[C@H]7O[C@@]8(OC[C@](C)(O)C[C@H]8O)[C@H](C)[C@H]7[C@]6(C)CC[C@H]54)C3)O[C@H](CO)[C@@H](O)[C@@H]2O[C@@H]2O[C@@H](C)[C@H](O[C@@H]3O[C@H](CO)[C@@H](O)[C@H](O)[C@H]3O)[C@@H](O)[C@H]2O)[C@H](O)[C@H](O)[C@H]1O` (stereo in doubt), the IC50 in the series on RAW264.7 [3] and with BV-2 [5] was more than 80 µM in each case. Further, the inhibition at 80 µM with RAW264.7 [4] and with BV-2 [6] was less than 50% in each case.

On to `C[C@@H]1CO[C@@]2(O[C@@H]3C[C@@H]4[C@H]5CC=C6C[C@H](O[C@@H]7O[C@H](CO)[C@@H](O)[C@H](O[C@@H]8O[C@@H](C)[C@H](O[C@@H]9O[C@H](CO)[C@@H](O)[C@H](O)[C@H]9O)[C@@H](O)[C@H]8O)[C@H]7O[C@@H]7O[C@@H](C)[C@H](O)[C@@H](O)[C@H]7O)CC[C@@]6(C)[C@@H]5CC[C@@]4(C)[C@@H]3[C@H]2C)[C@H](O)C1` (stereo in doubt), for which the figures for the 50% inhibitory concentration (IC50) in the series with RAW264.7 [3] and in the series with BV-2 [5] were 37 µM and 43.7 µM, respectively. Further, the inhibition entry in the series on RAW264.7 [4] and with BV-2 [6] was “Active” each time.

As to `C[C@@H]1CO[C@]2(C[C@@H]1O)O[C@@H]1C[C@@H]3[C@H]4CC=C5C[C@H](O[C@@H]6O[C@H](CO)[C@@H](O)[C@H](O[C@@H]7O[C@@H](C)[C@H](O[C@@H]8O[C@H](CO)[C@@H](O)[C@H](O)[C@H]8O)[C@@H](O)[C@H]7O)[C@H]6O[C@@H]6O[C@@H](C)[C@H](O)[C@@H](O)[C@H]6O)CC[C@@]5(C)[C@@H]4CC[C@@]3(C)[C@@H]1[C@H]2C` (stereo in doubt), the IC50 in the series on RAW264.7 [3] and in the series on BV-2 [5] was more than 80 µM in each case. The inhibition at 80 µM with RAW264.7 [4] and with BV-2 [6] was less than 50% in each case.

On to `C[C@@H]1CO[C@@]2(O[C@@H]3C[C@@H]4[C@H]5CC=C6C[C@H](O[C@@H]7O[C@H](CO)[C@@H](O)[C@H](O[C@@H]8O[C@@H](C)[C@H](O[C@@H]9O[C@H](CO)[C@@H](O)[C@H](O)[C@H]9O)[C@@H](O)[C@H]8O)[C@H]7O[C@@H]7O[C@@H](C)[C@H](O)[C@@H](O)[C@H]7O)CC[C@@]6(C)[C@@H]5CC[C@@]4(C)[C@@H]3[C@H]2C)[C@H](O)[C@@H]1O` (stereo in doubt), for which the IC50 in the series with RAW264.7 [3] stood at 58.2 µM; in the series on BV-2 [5] it was 47.3 µM. Besides, the inhibition entry in the series on RAW264.7 [4] and in the series on BV-2 [6] was “Active” in each case.

As for `O=C(/C=C/c1ccc(O)c(O)c1)c1ccc(O)cc1O` [BUTEIN], the IC50 was found to be 5.3 µM in the series with RAW264.7 [3] and 4.3 µM in the series with BV-2 [5].

In general, IC50 refers to the point on the concentration scale where inhibition reaches its midpoint. The low end stands for inhibition by little substance, the high end for a need for much substance. Broadly, the inhibition is the share of the control response that was lost under treatment.
